Test results as given in patent US12552747B2, “Amino acid derivative containing non-steroidal anti-inflammatory drug structure and preparation method and application thereof” (priority 2020, dated 2026).
Marks after values point to notes of the source that are not given here.

Legend:
[1] = test system: HepG-2 liver tumors; assay: Transplanted tumor in nude mice, intraperitoneal, HepG-2; assay type: in vivo, BALB/c nude mice; settings: 8 administrations; for Tumor inhibition rate / Tumor weight: HepG-2, 5 mg/kg i.p. once every 3 days; for Body Weight After administration: HepG-2 tumor-bearing BALB/c mice, 5 mg/kg i.p. once every 3 days
Method: (§1) BALB/c nude mice were used to inoculate Bel-7402, HepG-2 and SK-hep1 liver tumors according to the transplanted tumor research method under aseptic operation, and the cell density was not less than 5×10^6/ml, 0.2 ml was inoculated subcutaneously in the axilla of the right hind limb of each mouse. After the cells were inoculated, the cells were administered intraperitoneally (concentration: 5 mg/kg), once every 3 days, for a total of 8 administrations. After the 2nd day of drug withdrawal, all tumor-bearing mice were sacrificed, and their body weight, tumor weight and tumor inhibition were weighed.

[2] = test system: Liver cancer HepG-2 cells; assay: In vitro antitumor activity test (MTT), HepG-2; assay type: cell-based; settings: Homo sapiens, HepG2; Liver cancer HepG-2, MTT, 24 h
Method: (§2) 13 human tumor cell lines were selected and cultured in RPMI-1640 medium (Gibco company) containing 10% inactivated fetal bovine serum, 100 U/ml penicillin and 100 U/ml streptomycin, cultured at 37° C. in a 5% CO2 incubator, and passaged once every 2 days. Using the MTT method, cells in the logarithmic growth phase were digested with 0.25% trypsin, centrifuged at 1000 r/min for 5 min, 8×10^3 cells were added to each well, and seeded in a 96-well plate, and 180 μl of cell suspension was added to each well, and a blank was set at the same time. The 96-well plate inoculated with tumor cells was placed in a carbon dioxide incubator for 24 hours, and then 20 μl of the drug was added, and an equal volume of culture medium was added to the blank control well, and the drug was divided into 8 concentrations from 50 μg/L to 0.4 μg/L. Three duplicate wells were set for each drug concentration and placed in an incubator for 24 h. 10 μl of MTT solution (5 mg/ml) was added to each well, and the culture was continued for 4 h. The supernatant was aspirated and discarded, 100 μl of dimethyl sulfoxide (DMSO) solution was added to each well, placed on a micro shaker for 10 min, and the absorbance (A value) was measured at a wavelength of 492 nm in a microplate reader, and the inhibition rate of the drug on tumor cells was calculated according to the following formula.
(§3) In this test, the IC50 value of the compound on tumor cells was calculated by the Origin software according to the inhibition rate of the compound. AC-201 in the following table was the abbreviation of PL-AC-201, and so on.

[3] = test system: Colon cancer HT29 cells; assay: In vitro antitumor activity test (MTT), HT29; assay type: cell-based; settings: Homo sapiens, HT-29, 24 h
Method: as §2, §3

[4] = test system: Lung cancer H1299 cells; assay: In vitro antitumor activity test (MTT), H1299; assay type: cell-based; settings: Homo sapiens, NCI-H1299, 24 h
Method: as §2, §3

[5] = test system: Cervical cancer Hela cells; assay: In vitro antitumor activity test (MTT), Hela; assay type: cell-based; settings: Homo sapiens, 24 h
Method: as §2, §3

[6] = test system: Melanoma B16 cells; assay: In vitro antitumor activity test (MTT), B16; assay type: cell-based; settings: 24 h
Method: as §2, §3

[7] = test system: Liver cancer Bel-7402 cells; assay: In vitro antitumor activity test (MTT), Bel-7402; assay type: cell-based; settings: Homo sapiens; Liver cancer Bel-7402, MTT, 24 h
Method: as §2, §3

[8] = test system: Lung cancer H292 cells; assay: In vitro antitumor activity test (MTT), H292; assay type: cell-based; settings: Homo sapiens, NCI-H292, 24 h
Method: as §2, §3

[9] = Acute toxicity test of single administration to ICR mice; settings: mouse, in vivo, intravenous, single tail vein injection, observed 7 days
Method: ICR mice, 18-22 g, were raised in a common-grade animal room, fed with common feed, and ingested freely. The group distance and dose were determined after exploring the Dm and Dn of the compounds of the examples. Five concentrations of the compounds of the examples were formulated at the desired dose. The corresponding doses of drugs were injected into the tail vein according to body weight, and the blank control group was injected with normal saline. Immediately after administration, the performance and death of each animal were observed and recorded, and the possible toxic reaction or death of animals within 7 days after a single administration was observed and recorded.

[10] = test system: Liver cancer SK-hep1 cells; assay: In vitro antitumor activity test (MTT), SK-hep1; assay type: cell-based; settings: Homo sapiens, 24 h
Method: as §2, §3

[11] = test system: Lung cancer H460 cells; assay: In vitro antitumor activity test (MTT), H460; assay type: cell-based; settings: Homo sapiens, NCI-H460, 24 h
Method: as §2, §3

[12] = test system: human red blood cells; assay: Detection of hemolytic activity; assay type: cell-based
Method: 2-3 ml of human blood was drawn using an anticoagulant tube, thoroughly mixed, and kept at 4° C. for later use. 2 ml of blood was aspirated and added with 2-3 ml of PBS, followed by gently pipetting and centrifugation for 5 min at 1000 rpm, which was repeated 3-4 times. After the last centrifugation, PBS was aspirated, PBS was added to 40 ml (20 times the volume), and the number of blood cells at this time was 2×10^8 cells/ml. The red blood cell suspension was added to the plate (U-shaped 96-well plate), and 70 μl/well was used as a negative well. Only PBS was added to blank wells, 140 μl/well. 2 ml of the red blood cell suspension was centrifuged, PBS was discarded, 2 ml of pure water was added, mixed well, and 140 μl/well was used as a positive well. The diluted polypeptide solutions of different concentrations were added to the plate, 70 μl/well. Incubated at 37° C., 87 rpm, shaken for 2h, centrifuged for 5 min at 3000 rpm. The OD value measured by microplate reader: After centrifugation, 90 μl of supernatant was drawn and transferred to a flat-bottom 96-well plate, and the OD value at 578 nm was measured by microplate reader. ODtest-OD negative >0.1 (the first concentration that met the conditions was MHC).

[13] = test system: Lung cancer A549 cells; assay: In vitro antitumor activity test (MTT), A549; assay type: cell-based; settings: Homo sapiens, 24 h
Method: as §2, §3

[14] = test system: Pancreatic cancer Bxpc-3 cells; assay: In vitro antitumor activity test (MTT), Bxpc-3; assay type: cell-based; settings: Homo sapiens; Pancreatic cancer Bxpc-3, MTT, 24 h
Method: as §2, §3

[15] = test system: Human osteosarcoma MG63 cells; assay: In vitro antitumor activity test (MTT), MG63; assay type: cell-based; settings: MG-63, 24 h
Method: as §2, §3

[16] = test system: Bel-7402 liver tumors; assay: Transplanted tumor in nude mice, intraperitoneal, Bel-7402; assay type: in vivo, BALB/c nude mice; settings: 8 administrations; for Tumor inhibition rate / Tumor weight: Bel-7402, 5 mg/kg i.p. once every 3 days; for Body Weight After administration: Bel-7402 tumor-bearing BALB/c mice, 5 mg/kg i.p. once every 3 days
Method: as §1

[17] = test system: Breast cancer MCF-7 cells; assay: In vitro antitumor activity test (MTT), MCF-7; assay type: cell-based; settings: Homo sapiens, MCF7; Breast cancer MCF-7, MTT, 24 h
Method: as §2, §3

[18] = test system: SK-hep1 liver tumors; assay: Transplanted tumor in nude mice, intraperitoneal, SK-hep1; assay type: in vivo, BALB/c nude mice; settings: 8 administrations; for Tumor inhibition rate / Tumor weight: SK-hep1, 5 mg/kg i.p. once every 3 days; for Body Weight After administration: SK-hep1 tumor-bearing BALB/c mice, 5 mg/kg i.p. once every 3 days
Method: as §1

[19] = test system: 13 human tumor cell lines; assay: Average IC50 over the tumor cell lines (MTT); assay type: cell-based; settings: mean IC50 for each tumor, read-out: AverageIC50
Method: as §2, §3
The ratio of the hemolytic concentration MHC of the compound to the mean IC50 for each tumor was referred to as the therapeutic index (TI). The safety of the compound was evaluated by the therapeutic index. The higher the therapeutic index, the greater the safety range of the compound.

[20] = human red blood cells, 37° C., 2h, first concentration with ODtest-OD negative >0.1

Compound | Tumor inhibition rate [1] | Tumor weight [1] | Body Weight After administration [1] | IC50 [2] | IC50 [3] | IC50 [4] | IC50 [5] | IC50 [6] | IC50 [7] | IC50 [8] | LD50 at 7 days [9] | IC50 [10] | IC50 [11] | MHC ([12]; hemolytic concentration, in nM) | MHC [12, 20] | IC50 [13] | IC50 [14] | IC50 [15] | IC50 [17] | IC50 [19] | other results
CC1(C)CC(NC(=O)C(Cc2ccc(-c3ccccc3)cc2)NC(=O)c2cc3ccccc3n2Cc2ccccc2)CC(C)(C)N1 (stereo not drawn) [PL-AC-15, reference compound] | 66.7** % | 549.9 ± 10.2 mg | 23.8 ± 1.0 g | 16.2 nM | 38.2 nM | 24.4 nM | 19.7 nM | 30.5 nM | 81.7 nM | 28.3 nM | 23.6 mg/kg | 26.4 nM | 22 nM | 1.6e+06 nM | 1000 µg/mL | 31.2 nM | 48.9 nM | 25.8 nM | 23.2 nM | 32 nM | Tumor inhibition rate [16]: 61.8** %; Tumor weight [16]: 302.9 ± 0.8 mg; Body Weight After administration [16]: 25.2 ± 1.1 g; Tumor inhibition rate [18]: 60.6** %; Tumor weight [18]: 441.5 ± 10.8 mg; Body Weight After administration [18]: 23.2 ± 0.3 g
CC(=O)Oc1ccccc1C(=O)NC(Cc1ccc(-c2ccccc2)cc1)C(=O)NC1CC(C)(C)NC(C)(C)C1 (stereo not drawn) [PL-AC-201] | 69.3** % | 506.9 ± 9.4 mg | 22.9 ± 1.4 g | 16.1 nM | 35.9 nM | 23.7 nM | 19.5 nM | 29.8 nM | 50.2 nM | 22.3 nM | 27.2 mg/kg | 16.2 nM | 21.9 nM | 5.8e+06 nM | 3000 µg/mL | 29.9 nM | 52.1 nM | 24.8 nM | 24.3 nM | 28.2 nM | Tumor inhibition rate [16]: ^ΔΔ66.2** %; Tumor weight [16]: 268.1 ± 9.6 mg; Body Weight After administration [16]: 23.2 ± 1.0 g; Tumor inhibition rate [18]: 61.2** %; Tumor weight [18]: 434.7 ± 9.4 mg; Body Weight After administration [18]: 23.7 ± 1 g
COc1ccc2cc(C(C)C(=O)NC(Cc3ccc(-c4ccccc4)cc3)C(=O)NC3CC(C)(C)NC(C)(C)C3)ccc2c1 (stereo not drawn) [PL-AC-202] | ^ΔΔ75.4** % | 406.2 ± 5.9 mg | 22.8 ± 0.8 g | 15.8 nM | 32.5 nM | 19.8 nM | 16.1 nM | 28.4 nM | 45.6 nM | 20.1 nM | 34.8 mg/kg | 11.5 nM | 18.5 nM | 5.1e+06 nM | 3000 µg/mL | 23.2 nM | 35.1 nM | 24.1 nM | 21.1 nM | 24 nM | Tumor inhibition rate [16]: ^ΔΔ73.1** %; Tumor weight [16]: 213.3 ± 9.3 mg; Body Weight After administration [16]: 22.9 ± 1.1 g; Tumor inhibition rate [18]: ^ΔΔ71.7** %; Tumor weight [18]: 317.1 ± 8.7 mg; Body Weight After administration [18]: 24.9 ± 1.0 g
CC1(C)CC(NC(=O)C(Cc2ccc(-c3ccccc3)cc2)NC(=O)Cc2ccccc2Nc2c(Cl)cccc2Cl)CC(C)(C)N1 (stereo not drawn) [PL-AC-203] | ^ΔΔ72.4** % | 455.8 ± 9.9 mg | 22.7 ± 1.7 g | 16 nM | 37 nM | 20.5 nM | 20 nM | 30.1 nM | 45.4 nM | 24.9 nM | 39.8 mg/kg | 22.6 nM | 20.8 nM | 3e+06 nM | 2000 µg/mL | 24.2 nM | 49.4 nM | 26 nM | 23.1 nM | 27.7 nM | Tumor inhibition rate [16]: 58.7** %; Tumor weight [16]: 327.4 ± 10.4 mg; Body Weight After administration [16]: 24.1 ± 0.9 g; Tumor inhibition rate [18]: ^ΔΔ68.3** %; Tumor weight [18]: 355.2 ± 1.2 mg; Body Weight After administration [18]: 24.7 ± 0.5 g
C/C(=C1/c2ccc(F)cc2C(CC(=O)NC(Cc2ccc(-c3ccccc3)cc2)C(=O)NC2CC(C)(C)NC(C)(C)C2)C1C)c1ccc([S+](C)[O-])cc1 (stereo not drawn) [PL-AC-204] | 65.1** % | 576.3 ± 10.7 mg | 23.1 ± 1.0 g | 15.9 nM | 37.4 nM | 21.6 nM | 19.2 nM | 30.5 nM | 40.7 nM | 27.6 nM | 29.9 mg/kg | 23.6 nM | 21.6 nM | 4.1e+06 nM | 3000 µg/mL | 29.8 nM | 49.4 nM | 24.5 nM | 23.1 nM | 28.1 nM | 
COc1ccc2c(c1)c(CC(=O)NC(Cc1ccc(-c3ccccc3)cc1)C(=O)NC1CC(C)(C)NC(C)(C)C1)c(C)n2C(=O)c1ccc(Cl)cc1 (stereo not drawn) [PL-AC-205] | ^Δ71.8** % | 465.6 ± 5.9 mg | 21.9 ± 1.2 g | 16.2 nM | 37 nM | 20.3 nM | 19.5 nM | 31.7 nM | < 38.2 nM | 27.4 nM | 35.6 mg/kg | 12.4 nM | 20.3 nM | 4.2e+06 nM | 3000 µg/mL | 24.5 nM | 45.3 nM | 25.7 nM | 23.2 nM | 25.3 nM | Tumor inhibition rate [16]: ^ΔΔ69.4** %; Tumor weight [16]: 242.8 ± 6.6 mg; Body Weight After administration [16]: 23.9 ± 0.6 g; Tumor inhibition rate [18]: 62.0** %; Tumor weight [18]: 425.8 ± 10.7 mg; Body Weight After administration [18]: 22.2 ± 0.9 g
